According to patent publication US12060387B2, “Polypeptide-based shuttle agents for improving the transduction efficiency of polypeptide cargos to the cytosol of target eukaryotic cells, uses thereof, methods and kits relating to same” (priority 2015, dated 2024):
Like-named read-outs stand apart in the source and are kept apart here. Where no end group is shown, it is not given here.

Legend:
[1] = Cell toxicity / % cell viability by flow cytometry (cells in total events v. untreated); type: cell-based, Human; details: human, HeLa cells, HeLa, GFP-NLS 5 μM, read-out: Cell viability (%) (±St. Dev.; n = 3); for viability at 10 s, 50 µM: shuttle 50 μM, 10 seconds, FIG. 29A; for viability at 1 min, 20 µM: FIG. 29I, shuttle 20 μM, 1 minute
HeLa cells [2] = experiment: as above; type: cell-based, Human; details: HeLa, Protocol B; for Cell viability (%) (±St. Dev.; n = 3), FIG. 29F / Cell viability (%) (±St. Dev.; n = 3), FIG. 29E: shuttle 50 μM, GFP-NLS 5 μM, 10 seconds; for effect of the variation of the shuttle on cell viability (in words): GFP-NLS 5 μM with 20 μM shuttle variant, 1 minute
[3] = as above; type: cell-based, human; details: human, THP-1 cells, THP-1, Protocol C, shuttle 1 μM, GFP-NLS 5 μM, read-out: Cell viability (%) (±St. Dev.; n = 3)
Text: The fluorescence of GFP was quantified using flow cytometry (Accuri C6, Becton, Dickinson and Company (BD)). Untreated cells were used to establish a baseline in order to quantify the increased fluorescence due to the internalization of the fluorescent protein in treated cells. The percentage of cells with a fluorescence signal above the maximum fluorescence of untreated cells, “mean %” or “Pos cells (%)”, is used to identify positive fluorescent cells. “Relative fluorescence intensity (FL1-A)” corresponds to the mean of all fluorescence intensities from each cell with a fluorescent signal after fluorescent protein delivery with the shuttle agent. Also, the events scanned by flow cytometry corresponding to cells (size and granularity) were analyzed. The cellular toxicity (% cell viability) was monitored comparing the percentage of cells in the total events scanned of treated cells comparatively to untreated cells.

HeLa cells [4] = experiment: GFP-NLS transduction efficiency, flow cytometry (Pos cells %, relative fluorescence intensity FL1-A); type: cell-based, Human; details: 1 minute, Protocol B; for Mean % cells with GFP signal (±St. Dev.; n = 3), FIG. 29I: shuttle 20 μM, GFP-NLS 5 μM
THP-1 cells [5] = experiment: Total RNA levels (ng/μL) as a marker for cell viability; type: cell-based, human
Protocol: (§1) Control and treated cells are transferred to separate sterile 1.5-mL tubes and centrifuged for 5 minutes at 300 g. The cell pellets are resuspended in appropriate buffer to lyse the cells. RNAase-free 70% ethanol is then added followed by mixing by pipetting. The lysates are transferred to an RNeasy™ Mini spin column and centrifuged 30 seconds at 13000 RPM. After several washes with appropriate buffers and centrifugation steps, the eluates are collected in sterile 1.5-mL tubes on ice, and the RNA quantity in each tube is then quantified with a spectrophotometer. For DNase treatment, 2 μg of RNA is diluted in 15 μL of RNase-free water. 1.75 μL of 10× DNase buffer and 0.75 μL of DNase is then added, followed by incubation at 37° C. for 15 minutes. For reverse transcriptase treatment, 0.88 μL of EDTA ([…]) is added, followed by incubation at 75° C. for 5 minutes. In a PCR tube, 0.5 μg of DNase-treated RNA is mixed with 4 μL of iScript™ Reverse transcription Supermix (5×) and […] of nuclease-free water. The mix is incubated in a PCR machine with the following program: 5 min at 25° C., 30 min at 42° C. and 5 min at 85° C. Newly synthesized cDNA is transferred in sterile 1.5-mL tubes and diluted in 2 μL of nuclease-free water. 18 μL per well of a qPCR machine (CFX-96™) mix is then added in a PCR plate for analysis.
Briefly, THP-1 cells were plated at 30 000 cells/well one day before transduction. HOXB4-WT recombinant protein (0.3, 0.9, or 1.5 μM; Example 14.1) was co-incubated with different concentrations of His-CM18-PTD4 ([…], 0.8 or 1 μM) and then exposed to THP-1 cells for 2.5 hours in the presence of serum. The cells were subjected to real time-PCR analysis as described in Example 14.2 to measure the mRNA levels of a target gene as a marker for HOXB4 activity, which was then normalized to the target gene mRNA levels detected in the negative control cells (no treatment), to obtain a “Fold over control” value. Total RNA levels (ng/μL) were also measured as a marker for cell viability.

THP-1 cells [6] = experiment: HOXB4-WT transduction, real-time PCR of target gene mRNA (Fold over control); type: cell-based, human
Protocol: as §1
Briefly, THP-1 cells were plated at 30 000 cells/well one day before transduction. […] The cells were subjected to real time-PCR analysis as described in Example 14.2 to measure the mRNA levels of a target gene as a marker for HOXB4 activity, which was then normalized to the target gene mRNA levels detected in the negative control cells (no treatment), to obtain a “Fold over control” value. Total RNA levels (ng/μL) were also measured as a marker for cell viability.
Briefly, THP-1 cells were plated at 30 000 cells/well one day before the first time course experiment. […] The cells were subjected to real time-PCR analysis as described in Example 14.2 to measure mRNA levels of a target gene as a marker for HOXB4 activity, which was then normalized to the target gene mRNA levels detected in the negative control cells (no treatment), to obtain a “Fold over control” value. Total RNA levels (ng/μL) were also measured as a marker for cell viability.
Briefly, THP-1 cells were plated at 30 000 cells/well one day before the first time course experiment. […] The cells were subjected to real time-PCR analysis as described in Example 14.2 to measure mRNA levels of a target gene as a marker for HOXB4 activity, which was then normalized to target gene mRNA levels detected in the negative control cells (no treatment), to obtain a “Fold over control” value. Total RNA levels (ng/μL) were also measured as a marker for cell viability. […]

[7] = Cell viability (%) (±St. Dev.; n = 3), Protocol B

Substance: YGRKKRRQRRRCWEAKLAKALAKALAKHLAKALAKALKACEA (cysteines drawn unpaired) [TAT-KALA]
- viability at 1 min, 10 µM ([1]; Protocol B, shuttle 10 μM, incubation 1 min, FIG. 29B): 93.5 ± 2.7%
- viability at 2 min, 10 µM ([1]; Protocol B, shuttle 10 μM, incubation 2 min, FIG. 29B): 92.1 ± 3.1%
- viability at 5 min, 10 µM ([1]; Protocol B, shuttle 10 μM, incubation 5 min, FIG. 29B): 86 ± 4.4%
- viability at 10 s, 50 µM ([1]; Protocol B): 95.6 ± 4.3%
- Cell viability (%) (±St. Dev.; n = 3), FIG. 29F (HeLa cells [2]): 95.6 ± 4.3%
- viability at 15 s, 1 µM ([3]; incubation time 15 sec): 84.6 ± 2.7%
- viability at 0.5 min, 1 µM ([3]; incubation time 30 sec): 70.3 ± 3.2%
- viability at 1 min, 1 µM ([3]; incubation time 60 sec): 82.7 ± 1.4%
- viability at 2 min, 1 µM ([3]; incubation time 120 sec): 46.3 ± 4.9%

Substance: KWKLFKKIGAVLKVLTTGGGSGGGSGGGSGYARAAARQARA [CM18-L3-PTD4]
- effect of the variation of the shuttle on cell viability (in words) (HeLa cells [2]): increased cell viability
- effect of the variation of the shuttle on transduction efficiency (in words) (HeLa cells [4]; GFP-NLS 5 μM with 20 μM shuttle variant): did not result in a dramatic loss of transduction efficiency
- Mean % cells with GFP signal (±St. Dev.; n = 3), FIG. 29I (HeLa cells [4]): 39.0 ± 2.7%

Substance: HHHHHHKWKLFKKIGAVLKVLTTGGWTLNSAGYLLKINLKALAALAKKIL [His-CM18-Transportan (TPT)]
- viability at 10 s, 50 µM [1, 7]: 41.3 ± 3.3%
- Cell viability (%) (±St. Dev.; n = 3), FIG. 29E (HeLa cells [2]): 41.3 ± 3.29%

Substance: MHHHHHHKWKLFKKIGAVLKVLTTGYARAAARQARAC [Met-His-CM18-PTD4-Cys]
- viability at 1 min, 20 µM [1, 7]: 54.9 ± 3.45%
- Mean % cells with GFP signal (±St. Dev.; n = 3), FIG. 29I (HeLa cells [4]): 45.6 ± 3.88%

Substance: HHHHHHKWKLFKKIGAVLKVLTTGYARAAARQARACCCCCC (cysteines drawn unpaired) [His-CM18-PTD4-6Cys]
- viability at 1 min, 20 µM [1, 7]: 62 ± 5.76%
- Mean % cells with GFP signal (±St. Dev.; n = 3), FIG. 29I (HeLa cells [4]): 41.3 ± 4.28%

Substance: HHHHHHKWKLFKKIGAVLKVLTTGYARAAARQARA [His-CM18-PTD4 alone]
- Total RNA in ng/μL (mean ± St. Dev) (THP-1 cells [5]; Table 14.1, shuttle 1 μM, HOXB4-WT 0 μM, 2.5 hours with serum): 252 ± 10.7 ng/µL
- Total RNA in ng/μL (mean ± St. Dev) (THP-1 cells [5]; Table 14.2, shuttle 0.8 μM, HOXB4-WT 0 μM, exposure time 2.5 h, serum): 184 ± 6.0 ng/µL
- Total RNA in ng/μL (mean ± St. Dev) (THP-1 cells [5]; Table 14.3, shuttle 0 μM, HOXB4-WT 0.3 μM, exposure time 2.5 h, serum): 260 ± 7.1 ng/µL
- Total RNA in ng/μL (mean ± St. Dev) (THP-1 cells [5]; Table 14.4, shuttle 0 μM, HOXB4-WT 1.5 μM, exposure time 2.5 h, serum): 303.9 ± 7.6 ng/µL

Substance: HHHHHHKWKLFKKIGAVLKVLTTGYGRKKRRQRRR [His-CM18-TAT]
- viability at 1 h, 1 µM ([1]; Cell viability (%) (±St. Dev.; n = 3), FIG. 21B, shuttle 1 μM, 1 hour, FIG. 21B): 95 ± 3.55%
- viability at 1 h, 3 µM ([1]; Cell viability (%) (±St. Dev.; n = 3), FIG. 21B, shuttle 3 μM, 1 hour, FIG. 21B): 91 ± 5.18%
- viability at 1 h, 5 µM ([1]; Cell viability (%) (±St. Dev.; n = 3), FIG. 21B, shuttle 5 μM, 1 hour, FIG. 21B): 86 ± 4.59%
- viability at 10 s, 50 µM [1, 7]: 35.2 ± 5.7%
- Cell viability (%) (±St. Dev.; n = 3), FIG. 29E (HeLa cells [2]): 35.2 ± 5.7%

Substance: YGRKKRRQRRRCKWKLFKKIGAVLKVLTTG [TAT-CM18]
- viability at 10 s, 50 µM [1, 7]: 23.5 ± 1.1%
- Cell viability (%) (±St. Dev.; n = 3), FIG. 29F (HeLa cells [2]): 23.5 ± 1.1%

Substance: KWKLFKKIGAVLKVLTTGGGSYARAAARQARA [CM18-L1-PTD4]
- viability at 1 min, 20 µM [1, 7]: 50.1 ± 3.8%
- effect of the variation of the shuttle on cell viability (in words) (HeLa cells [2]): increased cell viability

Substance: HOXB4-WT alone
- Fold over control (mean ± St. Dev) (THP-1 cells [6]; Table 14.1, shuttle 0 μM, HOXB4-WT 1.5 μM, 2.5 hours with serum): 4.3 ± 0.1
- Fold over control (mean ± St. Dev) (THP-1 cells [6]; Table 14.2, shuttle 0 μM, HOXB4-WT 1.5 μM, exposure time 2.5 h, serum): 3.4 ± 0.3
- Fold over control (mean ± St. Dev) (THP-1 cells [6]; Table 14.3, shuttle 0.8 μM, HOXB4-WT 0 μM, exposure time 2.5 h, serum): 1 ± 0.14
- Fold over control (mean ± St. Dev) (THP-1 cells [6]; Table 14.4, shuttle 0.8 μM, HOXB4-WT 0 μM, exposure time 2.5 h, serum): 1 ± 0.11

Substance: KWKLFKKIGAVLKVLTTGGGSGGGSYARAAARQARA [CM18-L2-PTD4]
- viability at 1 min, 20 µM [1, 7]: 64 ± 1.3%
- effect of the variation of the shuttle on cell viability (in words) (HeLa cells [2]): increased cell viability

Substance: HHHHHHKWKLFKKIGAVLKVLTTGRRRRRRRRR [His-CM18-9Arg]
- viability at 10 s, 50 µM [1, 7]: 45.8 ± 5.4%
- Cell viability (%) (±St. Dev.; n = 3), FIG. 29E (HeLa cells [2]): 45.8 ± 3.53%
